Assay results as given in patent US9822344B2, “Method for culturing pluripotent stem cells” (OSAKA UNIVERSITY, priority 2012, dated 2017).

Assays:
Type in all cases: cell-based, human
iPS cells = test: Rac-1 inhibitor added in culture on SNL feeder cells; conditions: Rac-1 inhibitor 50 or 100 μM added at day 3, same as without inhibitor
Protocol: Culture was performed by using SNL feeder cells as the feeder cells and adding the Rac-1 inhibitor (50 or 100 μM) at three days after the culture start (day 3).

iPS cells: Tic (Np 39) [1] = test: Influences of feeder-free culture on iPS cells: Rac-1 inhibitor added; conditions: Rac-1 inhibitor 100 or 150 μM at day 3 (FIG. 19: 150 μM), Synthemax Surface
Protocol: Synthemax Surface (trade name, manufactured by Corning Inc.) was used as a culture surface, and iPS cells were seeded thereover. The culture medium was exchanged with a maintenance medium every 24 hours until day 7. After the culture, the expression of Oct3/4 of the cultured cells was confirmed by immunocytostaining, and DAPI staining was performed. The used cells and media, as well as the culture conditions are as follows.
mTeSR (Trade Mark) 1 medium (trade name, manufactured by STEMCELL, Technologies)
Next, cells were cultured and observed in the same manner as those described above except that the Rac-1 inhibitor was added at 100 or 150 μM at three days after the start of the culture (day 3). Micrographs obtained are illustrated in FIG. 19. FIG. 19 illustrates micrographs obtained in the case where the Rac-1 inhibitor was 150 μM.

iPS cells: Tic (Np 39) [2] = test: Influences of feeder cells on iPS cells: Rac-1 inhibitor added in culture on MEF feeder cells; conditions: Rac-1 inhibitor 50, 100, or 150 μM added at day 3, outer edge part without inhibitor
Protocol: On feeder cells, iPS cells were seeded, and the culture medium was exchanged with a maintenance medium every 24 hours until day 7. After the culture, the expression of Oct3/4 of the cultured cells was confirmed by immunocytostaining, and DAPI staining was performed. The used cells and media, as well as the culture conditions are as follows.
iPS cells: Repro Stem (trade name, manufactured by ReproCELL J, Inc.), 5 ng/mL FGF-2
Micrographs obtained are illustrated in FIG. 17.
Next, cells were cultured and observed in the same manners as those described above except that a Rac-1 inhibitor (trade name: NSC23766, Calbiochem brand), which is a migration inhibitor, was added at 50, 100, or 150 μM at three days after the start of the culture (day 3). The obtained micrographs are illustrated in FIG. 17.
Dilution of Rac-1 inhibitor: the Rac-1 inhibitor was diluted by using a medium (Repro Stem) (final concentration: 50 or 100 μM).
Further, bFGF (trade name, manufactured by ReproCELL, Inc., final concentration 5 ng/ml) was added thereto, and the Rac-1 inhibitor thus diluted was added to iPS cells.

Compound: CCN(CC)CCCC(C)Nc1nc(C)cc(Nc2ccc3nc(C)cc(N)c3c2)n1 (racemic) [Rac-1 inhibitor]
- Part of the colony where deviated cells grew (iPS cells): Deviated cells grew in the center part of a colony
- Part of the colony where deviated cells emerge (iPS cells: Tic (Np 39) [1]): allowed deviated cells to emerge in the center part of a colony
- Part of the colony where deviated cells emerge (iPS cells: Tic (Np 39) [2]): emerge in the center part of the colony
